{"source": "patent US5789439A", "about": "“Pharmaceutical use of forskolin derivatives” (Nippon Kayaku Kabushiki Kaisha, priority 1990, dated 1998)", "key": {"[1]": {"tested_on": "total peripheral vascular resistance", "assay": "Effect on peripheral vascular resistance in human", "assay_type": "in vivo", "conditions": "i.v. 0.4 μg/kg/min, 40 minutes from start; four healthy adults; saline 1.7%", "procedure": "(3) Effect on peripheral vascular resistance in human was examined.\nA freeze-dried preparation comprising NKH-477 was dissolved in a physiological saline and continuously administered intravenously to four healthy adults at a rate of 0.4 μg/kg/min for one hour.\nThe rate of reduction of total peripheral vascular resistance after 40 minutes from the start of administration was determined for each subject from mean blood pressure and cardiac output calculated from Ultrasonic cardiography (UCG)."}, "[2]": {"tested_on": "NB-1 cells (a human neuroblastoma strain)", "assay": "Differentiation inducing effect for NB-1 cells", "assay_type": "cell-based", "conditions": "4-hour incubation", "procedure": "The differentiation inducing effect for the NB-1 cells (a human neuroblastoma strain: cell strain derived from neuroblastoma generated in infantile adrenal gland) was examined. The NB-1 cells were applied to a 96-well plate at a rate of 2×10^3 cells/well and precultured for 3 days. After attachment and growth were stabilized, the medium (RPMI 1640+10% fetal calf serum+SM.PC) was exchanged and a 10 μl solution of each test compound was added. Then, the cells were kept under constant observation to determine the occurrence or non-occurrence of differentiation. 2 mM (1.037 mg/ml) of dibutyryl cAMP dissolved in RPMI 1640 was used as positive control. NKH-477 and 14,15-dihydro-6-(3-dimethylaminopropionyl)forskolin hydrochloride were dissolved in a physiological saline. Forskolin was dissolved in DMSO and diluted with a physiological saline. The criterion for judgment of morphological change in differentiation is as follows. The figures in the parentheses are the ratio of the differentiated cells to the whole cells. It was confirmed that DMSO was totally devoid of differentiation inducing and promoting action at the concentrations used in this test."}, "[3]": {"tested_on": "collagen-induced aggregation", "assay": "Collagen-induced aggregation after intravenous administration to healthy adults", "assay_type": "in vivo, healthy adults (human)", "conditions": "i.v. 0.8 μg/kg/min for one hour, mean of four subjects", "procedure": "A freeze-dried preparation comprising NKH-477 was dissolved in a physiological saline and administered intravenously to four healthy adults at a rate of 0.8 μg/kg/min for one hour. The degrees of ADP-induced aggregation, epinephrine-induced aggregation and collagen-induced aggregation upon end of administration were measured and compared with those before administration (each figure is the average of measurements on the four subjects)."}, "[4]": {"tested_on": "total peripheral vascular resistance", "assay": "Effect on peripheral vascular resistance in anesthetized dogs", "assay_type": "in vivo, dog", "conditions": "for Change in total peripheral vascular resistance: mean ± SE", "procedure": "(2) Effect on peripheral vascular resistance in an anesthetized dogs was examined. Blood pressure was measured with a pressure transducer (CP-01 mfd. by Century Technology Co.) connected to a polyethylene tube inserted into a right femoral artery of a dog anesthetized with pentobarbital, and the cardiac output was measured according to a thermodilution method by using a dilution type cardiac output counter (MLC-4200 mfd. by Nihon Kohden K. K.) and a 7F thermodilution catheter (TC-704 mfd. by Nihon Kohden K. K.) inserted into the pulmonary artery through the right femoral vein. The total peripheral vascular resistance was determined by dividing the mean blood pressure by the cardiac output. NKH-477 was dissolved in a physiological saline and infused into a right cephalic vein at rates of 0.15, 0.3 and 0.6 μg/kg/min (flow rate: 0.2 ml/min) for 2 hours by using a continuous injection pump (Model 975C mfd. by Harvard Corp.). For the control, physiological saline was similarly infused at a rate of 0.2 ml/min."}}, "note": "Counter-ions that a name gives are not always drawn."}
{"smiles": "C=C[C@@]1(C)CC(=O)[C@]2(O)[C@@]3(C)[C@@H](O)CCC(C)(C)[C@@H]3[C@H](OC(=O)CCN(C)C)[C@H](OC(C)=O)[C@@]2(C)O1", "note": "[NKH-477, 6-(3-dimethylaminopropionyl)forskolin hydrochloride]", "values": [{"measurement": "average reduction rate of total peripheral vascular resistance", "setting": "[1]", "value": 19.7, "unit": "%"}, {"measurement": "Effect (differentiation inducing)", "setting": "[2]; Dose 1.56 μM", "value": "± (slight (<20%))"}, {"measurement": "Effect (differentiation inducing)", "setting": "[2]; Dose 6.25 μM", "value": "++ (heavy (>80%))"}, {"measurement": "Effect (differentiation inducing)", "setting": "[2]; Dose 25.00 μM", "value": "++ (heavy (>80%))"}, {"measurement": "Effect (differentiation inducing)", "setting": "[2]; Dose 100.00 μM", "value": "++ (heavy (>80%))"}, {"measurement": "Collagen-induced aggregation upon end of administration", "setting": "[3]; before administration 70.3%", "value": 45.8, "unit": "%"}, {"measurement": "Inhibition rate, Collagen-induced aggregation", "setting": "[3]", "value": 38.7, "unit": "%"}, {"measurement": "Change in total peripheral vascular resistance", "setting": "[4]; 0.15 μg/kg/min, 10 min from start of infusion, control 2.1 ± 1.5", "value": "-2.7 ± 2.4", "unit": "%"}, {"measurement": "Change in total peripheral vascular resistance", "setting": "[4]; 0.15 μg/kg/min, 30 min after cessation of infusion, control 31.4 ± 13.9", "value": "7.4 ± 7.4", "unit": "%"}, {"measurement": "Change in total peripheral vascular resistance", "setting": "[4]; 0.15 μg/kg/min, 30 min from start of infusion, control 4.0 ± 2.3", "value": "-6.2 ± 3.7", "unit": "%"}, {"measurement": "Change in total peripheral vascular resistance", "setting": "[4]; 0.15 μg/kg/min, 60 min after cessation of infusion, control 29.1 ± 9.7", "value": "15.7 ± 10.4", "unit": "%"}, {"measurement": "Change in total peripheral vascular resistance", "setting": "[4]; 0.15 μg/kg/min, 60 min from start of infusion, control 13.8 ± 3.4", "value": "-9.1 ± 5.7", "unit": "%"}, {"measurement": "Change in total peripheral vascular resistance", "setting": "[4]; 0.15 μg/kg/min, 120 min after cessation of infusion, control 26.8 ± 12.5", "value": "12.8 ± 7.2", "unit": "%"}, {"measurement": "Change in total peripheral vascular resistance", "setting": "[4]; 0.15 μg/kg/min, 120 min from start of infusion, control 20.5 ± 9.2", "value": "-5.7 ± 6.6", "unit": "%"}, {"measurement": "Change in total peripheral vascular resistance", "setting": "[4]; 0.3 μg/kg/min, 10 min from start of infusion, control 2.1 ± 1.5", "value": "-3.7 ± 2.9", "unit": "%"}, {"measurement": "Change in total peripheral vascular resistance", "setting": "[4]; 0.3 μg/kg/min, 30 min after cessation of infusion, control 31.4 ± 13.9", "value": "6.7 ± 7.0", "unit": "%"}, {"measurement": "Change in total peripheral vascular resistance", "setting": "[4]; 0.3 μg/kg/min, 30 min from start of infusion, control 4.0 ± 2.3", "value": "-10.4 ± 3.1", "unit": "%"}, {"measurement": "Change in total peripheral vascular resistance", "setting": "[4]; 0.3 μg/kg/min, 60 min after cessation of infusion, control 29.1 ± 9.7", "value": "17.1 ± 6.0", "unit": "%"}, {"measurement": "Change in total peripheral vascular resistance", "setting": "[4]; 0.3 μg/kg/min, 60 min from start of infusion, control 13.8 ± 3.4", "value": "-10.2 ± 4.1", "unit": "%"}, {"measurement": "Change in total peripheral vascular resistance", "setting": "[4]; 0.3 μg/kg/min, 120 min after cessation of infusion, control 26.8 ± 12.5", "value": "17.2 ± 9.2", "unit": "%"}, {"measurement": "Change in total peripheral vascular resistance", "setting": "[4]; 0.3 μg/kg/min, 120 min from start of infusion, control 20.5 ± 9.2", "value": "-11.5 ± 4.7", "unit": "%"}, {"measurement": "Change in total peripheral vascular resistance", "setting": "[4]; 0.6 μg/kg/min, 10 min from start of infusion, control 2.1 ± 1.5", "value": "-18.3 ± 8.6", "unit": "%"}, {"measurement": "Change in total peripheral vascular resistance", "setting": "[4]; 0.6 μg/kg/min, 30 min after cessation of infusion, control 31.4 ± 13.9", "value": "-13.4 ± 7.6", "unit": "%"}, {"measurement": "Change in total peripheral vascular resistance", "setting": "[4]; 0.6 μg/kg/min, 30 min from start of infusion, control 4.0 ± 2.3", "value": "-28.1 ± 5.9", "unit": "%"}, {"measurement": "Change in total peripheral vascular resistance", "setting": "[4]; 0.6 μg/kg/min, 60 min after cessation of infusion, control 29.1 ± 9.7", "value": "-4.1 ± 9.1", "unit": "%"}, {"measurement": "Change in total peripheral vascular resistance", "setting": "[4]; 0.6 μg/kg/min, 60 min from start of infusion, control 13.8 ± 3.4", "value": "-29.0 ± 6.4", "unit": "%"}, {"measurement": "Change in total peripheral vascular resistance", "setting": "[4]; 0.6 μg/kg/min, 120 min after cessation of infusion, control 26.8 ± 12.5", "value": "11.8 ± 12.9", "unit": "%"}, {"measurement": "Change in total peripheral vascular resistance", "setting": "[4]; 0.6 μg/kg/min, 120 min from start of infusion, control 20.5 ± 9.2", "value": "-28.0 ± 5.4", "unit": "%"}, {"measurement": "recovery of total peripheral vascular resistance", "setting": "[4]; after cessation of the infusion", "value": "substantially restored in 2 hours after cessation of the infusion"}, {"measurement": "total peripheral vascular resistance, course in words", "setting": "[4]; i.v. infusion 0.15-0.6 μg/kg/min for 2 hours", "value": "decreased gradually after the start of infusion"}]}
